Entries after “also recorded” stand apart in the source; their conditions may differ.

For one data set, the system named is neural stem cells. The conditions noted are these: result in words; cited from earlier work.
In the next data set the test system is SARS-CoV-2. It counts as cell-based. The conditions noted are these: for anti-SARS-CoV-2 activity (library screening): tetrazolium dye method, result in words.
Data set [1] concerns the target SARS-CoV-2 RNA polymerase (RdRp) (Severe acute respiratory syndrome coronavirus 2, UniProt P0DTD1). Briefly: RdRp inhibition assay. The conditions noted are these: Figure 4; result in words. The class given is biochemical.
Another data set concerns VeroE6/TMPRSS2 cells. The conditions noted are these: at a concentration of 100 μM; result in words.
Data set [2] has as its system 3-chymotrypsin-like (3CL) protease of SARS-CoV-2. The conditions noted are these: result in words; cited from earlier work.

`CC1=C(C/C=C(\C)CC/C=C(\C)Cc2cccc3ccccc23)C(=O)c2ccccc2C1=O` [Compound 2]: in the data set on neural stem cells, the neuronal differentiation activity entry is recorded as “induce neural stem cells to differentiate into neurons”. Besides, in the data set on SARS-CoV-2, the “anti-SARS-CoV-2 activity (library screening)” value was “anti-SARS-CoV-2 activity was observed”. Further, the “Inhibitory effect on SARS-CoV-2 RdRp activity” value (shortened to “Inhibitory effect”) in data set [1] is reported as “inhibited RdRp in a concentration-dependent manner”.
`CC1=C(C/C=C(\C)CC/C=C(\C)Cc2cccc(C)c2)C(=O)c2ccccc2C1=O` [Compound 1]: in the data set with neural stem cells, the neuronal differentiation activity result was “higher neuronal differentiation activity than natural vitamin K homologues; also recorded: induce neural stem cells to differentiate into neurons”. Also, in the data set on SARS-CoV-2, the “Microscopic observation of cell survival” value is “survived as well as control A” and the “anti-SARS-CoV-2 activity (library screening)” value was “anti-SARS-CoV-2 activity was observed”. Also, the “Inhibitory effect” value in data set [1] is reported as “inhibited RdRp in a concentration-dependent manner”.
`CC1=C(C/C=C(\C)CC/C=C(\C)Cn2cnc3c(Cl)ncnc32)C(=O)c2ccccc2C1=O` [Compound 16, 2-((2E,6E)-8-(6-Chloro-9H-purin-9-yl)-3,7-dimethylocta-2,6-dien-1-yl)-3-methylnaphthalene-1,4-dione]: in the data set with VeroE6/TMPRSS2 cells, the toxicity entry is reported as “no toxicity”. Besides, in data set [1], the “Inhibitory effect” value was “inhibited RdRp in a concentration-dependent manner”.
As to `CC1=CC(=O)c2ccccc2C1=O` [vitamin K3, menadione], the “inhibition of 3CL protease of SARS-CoV-2” value in data set [2] was “inhibit”.

These data come from publication PMC10652723 (ACS Omega, 2023).
